In patent US20240279302A1, “OLFACTORY RECEPTOR EXPRESSING METHOD AND RESPONSE MEASUREMENT METHOD” (Kao Corporation, priority 2021, published 2024):
Like-named read-outs stand apart in the source and are kept apart here.

What was measured:
Test in all cases: Luciferase assay, sulfur compounds
Format in all cases: cell-based
consensus OR2T29 = molecular target: T1, consensus OR2T29 (Homo sapiens, UniProt Q8NH02, A149V/A76M/C55S/F147L/I190K/I217V/K41M/L14S/L223S/L224F/L249M/L87M/M19V/M302T/M75V/R23S/R6W/S169T/S32C/S61T/T121A/T189M/V229I/V48I/V96I/W176R)
T1 construct: expressed in transfected cells; host or cells: HEK293
T1 sequence (Q8NH02 with tags, fused parts or gaps R6W/L14S/M19V/R23S/S32C/K41M/V48I/C55S/S61T/M75V/A76M/L87M/V96I/T121A/F147L/A149V/S169T/W176R/T189M/I190K/I217V/L223S/L224F/V229I/L249M/M302T): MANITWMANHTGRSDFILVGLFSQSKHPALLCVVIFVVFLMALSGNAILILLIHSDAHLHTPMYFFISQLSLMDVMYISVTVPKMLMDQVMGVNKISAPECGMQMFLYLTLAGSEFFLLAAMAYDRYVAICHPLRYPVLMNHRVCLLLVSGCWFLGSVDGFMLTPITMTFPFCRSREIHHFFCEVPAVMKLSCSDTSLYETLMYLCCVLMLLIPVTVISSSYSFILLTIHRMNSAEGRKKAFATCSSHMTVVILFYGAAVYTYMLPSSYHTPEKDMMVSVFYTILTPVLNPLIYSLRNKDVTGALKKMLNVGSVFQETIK
Experimental: (§1) A reaction solution as to each consensus olfactory receptor prepared in Examples described above was prepared according to the composition shown in Table 4, left standing for 20 minutes in a clean bench, and then added to each well of a 96-well plate (Becton, Dickinson and Company). The original olfactory receptor was used as to OR4S2. Composition shown in Table 20 was used as to OR11H2 and OR4E2. Subsequently, 100 μL of HEK293 cells suspended in DMEM (Nacalai Tesque, Inc.) was inoculated at 2×10^5 cells/cm^2 to each well, and cultured for 24 hours in an incubator kept at 37° C. and 5% CO2. Cells expressing no olfactory receptor (Mock) were provided as a control.
(§2) The medium was removed from the cultures prepared in 1), and 75 μL of a test substance solution (methyl mercaptan (MeSH) (CAS: 74-93-1, Tokyo Chemical Industry Co., Ltd.), dimethyl sulfide (DMS) (CAS: 75-18-3, FUJIFILM Wako Pure Chemical Corp.), dimethyl disulfide (DMDS) (CAS: 624-92-0, Tokyo Chemical Industry Co., Ltd.), concentration range: 0 μM, 1 μM, 3 μM, 10 μM, 30 μM, 100 μM, and 300 μM, or dimethyl trisulfide (DMTS) (CAS: 3658-80-8, Tokyo Chemical Industry Co., Ltd.), concentration range: 0 μM, 0.1 μM, 0.3 μM, 1 μM, 3 μM, 10 μM, and 30 μM) prepared with a fresh medium was added thereto. Under a copper ion addition condition, the test substance solution was adjusted to contain 30 μM copper(II) chloride (FUJIFILM Wako Pure Chemical Corp.) in addition to the odorant. The cells were cultured for 4 hours in a CO2 incubator and the luciferase gene was expressed sufficiently in the cells. Luciferase activity was measured using Dual-Glo™ luciferase assay system (Promega Corp.) in accordance with the operation manual of the product. A luminescence value derived from firefly luciferase induced by test substance stimulation in each well of the 96-well plate was divided by a luminescence value derived from Renilla luciferase to calculate a value (fluc/hRluc) as a signal, which was then used in analysis. The signal under each transfection condition was normalized with the signal value (fluc/hRluc) under an odorant stimulation-free condition defined as 0% and the signal value (fluc/hRluc) by stimulation with 10 μM forskolin defined as 100%, and used as a response (%) in analysis.

consensus OR11H2 = molecular target: T2, consensus OR11H2 (Homo sapiens, UniProt Q8NH07, A157T/A61V/C266F/D203A/E289A/F213L/F41L/F62C/G242R/I210T/I230L/I288V/I49T/K181M/K238L/L128F/L146H/L162I/M76I/N106T/N25R/P269S/Q137R/Q308R/Q30L/R68Q/S246A/S268G/T131A/T283A/T37K/V63A/Y156C); conditions: in the presence of a copper ion
T2 construct: expressed in transfected cells; host or cells: HEK293
T2 sequence (Q8NH07 12-326 N25R/Q30L/T37K/F41L/I49T/A61V/F62C/V63A/R68Q/M76I/N106T/L128F/T131A/Q137R/L146H/Y156C/A157T/L162I/K181M/D203A/I210T/F213L/I230L/K238L/G242R/S246A/C266F/S268G/P269S/T283A/I288V/E289A/Q308R): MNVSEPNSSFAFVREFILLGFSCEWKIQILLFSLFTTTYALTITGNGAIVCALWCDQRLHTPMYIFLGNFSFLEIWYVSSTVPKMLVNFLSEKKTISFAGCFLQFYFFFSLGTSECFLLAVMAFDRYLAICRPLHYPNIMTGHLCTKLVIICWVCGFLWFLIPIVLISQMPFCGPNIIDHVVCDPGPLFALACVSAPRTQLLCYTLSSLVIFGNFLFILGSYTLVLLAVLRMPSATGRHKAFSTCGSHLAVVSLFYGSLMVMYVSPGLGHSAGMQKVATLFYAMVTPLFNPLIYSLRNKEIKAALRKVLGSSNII
Experimental: as §1, §2

consensus OR2T1 = molecular target: T3, consensus OR2T1 (Homo sapiens, UniProt O43869, C277R/D138G/I77L/L118F/L265I/L324F/N134D/Q276H/S299T)
T3 construct: expressed in transfected cells; host or cells: HEK293
T3 sequence (O43869 52-369 I77L/L118F/N134D/D138G/L265I/Q276H/C277R/S299T/L324F): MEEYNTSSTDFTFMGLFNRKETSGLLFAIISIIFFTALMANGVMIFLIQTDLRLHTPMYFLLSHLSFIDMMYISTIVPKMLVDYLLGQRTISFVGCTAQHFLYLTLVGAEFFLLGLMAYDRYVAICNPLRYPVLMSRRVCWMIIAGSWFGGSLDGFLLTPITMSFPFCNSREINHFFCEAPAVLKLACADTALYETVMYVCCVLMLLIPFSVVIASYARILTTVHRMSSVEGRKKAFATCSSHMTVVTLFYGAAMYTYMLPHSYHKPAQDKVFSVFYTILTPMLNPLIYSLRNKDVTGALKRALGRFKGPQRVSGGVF
Experimental: as §1, §2

[1] = molecular target: T4, OR4S2 (original olfactory receptor) (Homo sapiens, UniProt Q8NH73); conditions: for dose dependence of the response of OR4S2 / response of OR4S2: in the presence of a copper ion
T4 construct: expressed in transfected cells; host or cells: HEK293
T4 sequence (Q8NH73 1-311): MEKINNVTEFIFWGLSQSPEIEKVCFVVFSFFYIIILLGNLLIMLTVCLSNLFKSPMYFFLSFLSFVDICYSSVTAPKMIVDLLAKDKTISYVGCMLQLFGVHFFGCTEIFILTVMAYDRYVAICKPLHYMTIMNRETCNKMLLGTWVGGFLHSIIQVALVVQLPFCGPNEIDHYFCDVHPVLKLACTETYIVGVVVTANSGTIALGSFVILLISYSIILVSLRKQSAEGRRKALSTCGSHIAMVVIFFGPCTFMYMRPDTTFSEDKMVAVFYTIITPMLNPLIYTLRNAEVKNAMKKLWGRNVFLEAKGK
Experimental: as §1, §2

[2] = in the presence of a copper ion

SMILES	response of consensus OR2T29 (consensus OR2T29; [2])	response of consensus OR11H2 (consensus OR11H2)	response of consensus OR2T1 (consensus OR2T1; [2])	EC50 [1]	dose dependence of the response of OR4S2 [1]	response of OR4S2 [1]	EC50 ([1]; OR4S2 (original), 30 μM CuCl2, read-out: EC50(μM) with 30 μM CuCl2)	EC50 (consensus OR2T29)	dose dependence of the response of consensus OR2T29 (consensus OR2T29; [2])	EC50 (consensus OR2T1)	dose dependence of the response of consensus OR2T1 (consensus OR2T1; [2])
CSSC [dimethyl disulfide]	responded	responded	responded	530 µM	dose-dependent response	responded	–	–	–	–	–
CSSSC [dimethyl trisulfide]	responded	responded	responded	–	dose-dependent response	responded	28 µM	–	–	–	–
CS [methyl mercaptan]	responded	responded	responded	–	–	responded	–	85 µM	dose-dependent response	33 µM	dose-dependent response
